Values of other authors as cited in the CATMoS acute toxicity set (Mansouri et al. 2021).
Values joined by “and” are separate entries in the source; they are usually repeats but may differ in a detail not shown here. Identical values can stand only once.

Assay: rat acute oral toxicity
Details: in vivo

Row | SMILES | LD50
1 | CCC[C@@H]1C[C@@H](C(=O)N[C@@H]([C@H]2O[C@H](SC)[C@H](O)[C@@H](O)[C@H]2O)[C@H](C)Cl)N(C)C1 | 2620 mg/kg and 2190 mg/kg
2 | CC[N+]1(CC)CCC(OC(=O)C(O)(c2ccccc2)c2ccccc2)C1 (stereo not given) | 760 mg/kg
3 | COP(=O)(OC)Oc1ccc([N+](=O)[O-])cc1 | 3.27 mg/kg
4 | CCOCCOCCOc1ccccc1 | 2140 mg/kg
5 | COc1cccc2c1C(=O)c1c(O)c3c(c(O)c1C2=O)C[C@@](O)(C(C)=O)C[C@@H]3O[C@H]1C[C@H](N)[C@H](O)[C@H](C)O1 | 336 mg/kg and 290 mg/kg
6 | CC(CO)CCO (stereo not given) | 5460 mg/kg
7 | COP(=S)(OC)SC(CC(=O)OC(C)C)C(=O)OC(C)C (stereo not given) | 4000 mg/kg
8 | CNC(=O)ON=C1SCC(=O)NC1C (stereo not given) | 5.66 mg/kg
9 | O=C(O)Cn1c(=O)n(Cc2ccc(Br)cc2F)c(=O)c2ccc(F)cc21 | 2140 mg/kg
10 | C=CCn1c(=O)[nH]c(=O)n(CC=C)c1=O | 930 mg/kg
11 | O=NN1CN(N=O)CN(N=O)C1 | 160 mg/kg
12 | O=C(OC(=O)C(Cl)Cl)C(Cl)Cl | 2820 mg/kg
13 | CCOc1ccc(Cl)cc1C(CN(C)C)C(C)CC (stereo not given) | 632 mg/kg
14 | Nc1ccc(F)c(F)c1 | 340 mg/kg
15 | CN(c1ccc(Cl)cc1Cl)c1c([N+](=O)[O-])cc([N+](=O)[O-])cc1C(F)(F)F | 4.5 mg/kg
16 | COc1cc(N)c(Cl)cc1C(=O)NC1CCNCC1 | 2550 mg/kg
17 | C=CC(=O)OC(C)COCC(C)OC(=O)C=C (stereo not given) | 4600 mg/kg
18 | COc1ccccc1OC(=O)[C@H](C)c1ccc(CC(C)C)cc1 | 2060 mg/kg
19 | C=CC(O)C#N (stereo not given) | 65 mg/kg
20 | CC(=O)Oc1ccc(Oc2c(I)cc(C(=O)O)cc2I)cc1I | 4600 mg/kg
21 | Cc1cc(=O)[nH]c(=O)[nH]1 | 64500 mg/kg
22 | CN1CCN(c2cc3c(nn2)Oc2ccccc2N3C)CC1 | 1000 mg/kg
23 | CN(C)C(=O)Oc1ccc[n+](C)c1 | 37.5 mg/kg
24 | SCc1cnccn1 | 1700 mg/kg
25 | CCCCN(CCO)CCCC | 1070 mg/kg

Row | SMILES | LD50
26 | CC(C)(Oc1ccc(C(=O)c2ccc(Cl)cc2)cc1)C(=O)O | 1240 mg/kg
27 | CN(CCN(C)N=O)N=O | 125 mg/kg
28 | CCOP(=S)(N=C1SCCS1)OCC | 14 mg/kg
29 | C1CCC(C(CC2CCCCN2)C2CCCCC2)CC1 (stereo not given) | 2150 mg/kg
30 | CN(C)N=Nc1ccc(-c2ccccc2)cc1 | 347 mg/kg
31 | Cc1c(Cl)ccc2[nH]c(C(F)(F)F)nc12 | 22 mg/kg
32 | O=C=NCc1ccc(CN=C=O)cc1 | 4500 mg/kg
33 | COP(=S)(OC)Sc1ccc(Cl)cc1 | 500 mg/kg
34 | CCCCCCCCCCCCCN1CC(C)OC(C)C1 (stereo not given) | 650 mg/kg
35 | CCN(CC)CCOc1ccccc1-n1c(C)ccc1-c1ccccc1 | 700 mg/kg
36 | COc1ccc(N2CCN(CCCN(C)C)CC2)cc1 | 787 mg/kg
37 | COc1ccc(OC)c(CC(C)N)c1 (racemic) | 171 mg/kg
38 | CCCCNCC1COc2cccc(OCC)c2O1 (stereo not given) | 348 mg/kg
39 | CCOP(=S)(OCC)SCSC(=S)N(C)C | 150 mg/kg
40 | CNS(=O)(=O)c1cc(OC)c(N)cc1C | 91.5 mg/kg
41 | CN(C)c1ccc(N=Nc2ccccc2)cc1 | 200 mg/kg
42 | CC(C)=C[C@@H]1[C@@H](C(=O)OCc2coc(Cc3ccccc3)c2)C1(C)C | 1240 mg/kg
43 | N#Cc1sc2c(=O)c3ccccc3c(=O)c=2sc1C#N | 638 mg/kg
44 | NCCOCCN | 961 mg/kg
45 | CCOC(=O)C(SP(=O)(OC)SC)c1ccccc1 (stereo not given) | 250 mg/kg
46 | CCN(CC)CCOC(=O)c1ccc(NCc2c(CO)cnc(C)c2O)cc1 | 5900 mg/kg
47 | COCCc1ccc(OCC(O)CNC(C)C)cc1 (stereo not given) | 3470 mg/kg
48 | Cc1cccc(CN(C)N=O)c1 | 600 mg/kg
49 | COC12C(COC(N)=O)C3=C(C(=O)C(C)=C(N)C3=O)N1CC1C2N1C (stereo not given) | 68 mg/kg
50 | C/C=C1\[C@H]2C=C(C)C[C@]1(N)c1ccc(=O)[nH]c1C2 | 15 mg/kg

Row | SMILES | LD50
51 | c1ccc(CC2=NCCN2)cc1 | 1200 mg/kg
52 | CC1(C)N=C(N)N=C(N)N1c1ccccc1 | 447 mg/kg
53 | CNC(=O)ON=C(SC)c1ccc(Cl)cc1 | 670 mg/kg
54 | CN(Cc1ccccc1)N=O | 18 mg/kg
55 | CC(=O)c1ccc2c(c1)N(CCCN(C)C)c1ccccc1S2 | 400 mg/kg
56 | O=S1OCC2C(CO1)C1(Cl)C(Cl)=C(Cl)C2(Cl)C1(Cl)Cl (stereo not given) | 240 mg/kg
57 | O=[N+]([O-])c1ccc(/C=N/NC(=S)N2CCCC2)o1 | 750 mg/kg
58 | Clc1ccc(C(Cn2ccnc2)OCc2ccsc2Cl)c(Cl)c1 (stereo not given) | 770 mg/kg
59 | C=CC(=O)OCCN=C=O | 200 mg/kg
60 | CN1CCN(CCCN2c3ccccc3Sc3ccc(Cl)cc32)CC1 | 1800 mg/kg
61 | CCSCC | 3420 mg/kg
62 | CN(c1ccc(Cl)cc1Br)c1c([N+](=O)[O-])cc([N+](=O)[O-])cc1C(F)(F)F | 4.5 mg/kg
63 | NCC(c1cccs1)N1CCCCC1 (stereo not given) | 1480 mg/kg
64 | CC(=O)Oc1ccc(C)cc1 | 1900 mg/kg
65 | CCc1nccnc1C | 600 mg/kg
66 | CCCCCCCCCCCCC(Br)C(=O)O (stereo not given) | 800 mg/kg
67 | Cc1ccccc1C(C)C | 2130 mg/kg
68 | CCCOc1c(Cl)c(Cl)c(Cl)c(Cl)c1Cl | 430 mg/kg
69 | CNC(=O)ON=C1SC(=NC(C)C)SC1(C)C | 8.9 mg/kg
70 | C[N+]1(C)CCCC1COC(=O)C(O)(c1ccccc1)C1CCCCC1 (stereo not given) | 780 mg/kg
71 | O=c1[nH]c2ccccc2o1 | 700 mg/kg
72 | C#CCOc1cccc(OC(=O)NC)c1 | 150 mg/kg
73 | Fc1ccc(C(c2ccc(F)cc2)N2CCN(C/C=C/c3ccccc3)CC2)cc1 | 503 mg/kg
74 | CCC(C)C(CN(C)C)c1ccc(OC)c(Cl)c1 (stereo not given) | 454 mg/kg
75 | CCOC(C1=NCC(C)(C)CN1)c1ccc(OC)c(F)c1 (stereo not given) | 320 mg/kg

Row | SMILES | LD50
76 | CCOC(=O)CCCCCCCCC(=O)OCC | 14500 mg/kg
77 | OCCOCCN(CCOCCO)CCN(CCOCCO)CCOCCO | 9900 mg/kg
78 | C#CCN(C)CCCOc1ccc(Cl)cc1Cl | 210 mg/kg
79 | CCOCc1cnc(C)nc1N | 1450 mg/kg
80 | OCCSSc1c(Cl)c(Cl)c(Cl)c(Cl)c1Cl | 2860 mg/kg
81 | C=C1/C(=C/C=C2/CCC[C@]3(C)[C@@H]([C@H](C)CCCC(C)C)CC[C@@H]23)C[C@@H](O)C[C@@H]1O | 0.34 mg/kg
82 | COC(=O)C(C)N(C(=O)c1ccco1)c1c(C)cccc1C (stereo not given) | 940 mg/kg
83 | CN(C)C(=O)SCCCCOc1ccccc1 | 1150 mg/kg
84 | CCCCNC | 420 mg/kg
85 | OC[C@@H](O)[C@@H](O)[C@H](O)[C@H](O)CO | 13500 mg/kg
86 | CCN(CC)C(=O)Nc1ccc(OCC(O)CNC(C)(C)C)c(C(C)=O)c1 (stereo not given) | 2160 mg/kg
87 | CCN(CC)CCOC(=O)Cc1ccc2c(c1)OCc1ccccc1C2=O | 150 mg/kg
88 | S=C=Nc1ccc(Br)cc1 | 400 mg/kg
89 | Fc1ccccc1 | 4400 mg/kg
90 | CCOC(=O)N(C)N=O | 180 mg/kg
91 | CC(C)N(CCON=C1CCCCCC1=Cc1ccccc1)C(C)C | 537 mg/kg
92 | CCOC(=S)C=Cc1ccc(OC)c(OC)c1 | 980 mg/kg
93 | ON=C1C=CC(=NO)C=C1 | 464 mg/kg
94 | N#CS/C=C/SC#N | 77 mg/kg
95 | CC(C)(C)c1cc([N+](=O)[O-])cc(C(C)(C)C)c1O | 250 mg/kg
96 | CCCCC(CC)COC(CBr)c1cccc(C2CCCCC2)c1 (stereo not given) | 250 mg/kg
97 | CCCCN(N=O)c1ccc(N(CCCC)N=O)cc1 | 2600 mg/kg
98 | COP1(=S)OCc2ccccc2O1 (stereo not given) | 102 mg/kg
99 | CN1C(C(=O)Nc2ccccn2)=C(O)c2ccccc2S1(=O)=O | 216 mg/kg
100 | CCC(=O)OC1(c2ccccc2)CCN(C)C1C (stereo not given) | 253 mg/kg

Row | SMILES | LD50
101 | Nc1ccccc1-c1ccccc1 | 2340 mg/kg
102 | CCN(N=O)C(C)(C)C | 1600 mg/kg
103 | CC(Oc1ccc(Oc2ncc(Cl)cc2Cl)cc1)C(=O)N1CCCO1 (stereo not given) | 500 mg/kg
104 | Nc1cccc(Cl)c1 | 256 mg/kg
105 | Cc1cc(=O)nc(C(C)C)[nH]1 | 2700 mg/kg
106 | CN(C)P(=O)(OC=C(Cl)Cl)c1ccc(Cl)cc1 (stereo not given) | 500 mg/kg
107 | CN(C)CC(=O)O | 3900 mg/kg
108 | CCCCC(C)(C)[C@H](O)C=C[C@H]1[C@H](O)CC(=O)[C@@H]1CCCCC=CC(=O)OC | 56.5 mg/kg
109 | CCOC(=O)C(c1c(O)c2ccccc2oc1=O)c1c(O)c2ccccc2oc1=O | 840 mg/kg
110 | Cc1c(Cl)cccc1Nc1ccccc1C(=O)O | 225 mg/kg
111 | CC1OC1C1CCC2(C)OC2C1 (stereo not given) | 5630 mg/kg
112 | CCOC(C1=NCC(C)(C)CN1)c1ccccc1 (stereo not given) | 875 mg/kg
113 | N#Cc1ccc2nc(C(F)(F)F)[nH]c2c1 | 4.41 mg/kg
114 | CCN(CC)c1ccc(N)c(C)c1 | 200 mg/kg
115 | O=NN(CCCl)C(=O)NCCCl | 20 mg/kg
116 | Clc1cc(Cl)c2nsnc2c1Cl | 1620 mg/kg
117 | NN1C(=O)CSC1=S | 2.21 mg/kg
118 | CN=C(O)O/N=C1\COCCS1 | 37 mg/kg
119 | C[Si](C)(C)CC(=O)O | 3000 mg/kg
120 | COP(=S)(OC)SCSc1ccccc1Cl | 13 mg/kg
121 | N/C(CNc1ccc(Cl)c(Cl)c1)=N/O | 245 mg/kg
122 | CC(=O)OCCN(CCC#N)c1ccccc1 | 2070 mg/kg
123 | O=c1oc2cc(O)ccc2s1 | 633 mg/kg
124 | CCOC(=O)OC(C)OC(=O)[C@@H]1N2C(=O)[C@@H](NC(=O)[C@H](N)c3ccccc3)[C@H]2SC1(C)C (stereo not given in full) | 10000 mg/kg
125 | CCCCCCCCCCCCCCCC[n+]1ccccc1 | 200 mg/kg and 475 mg/kg

Row | SMILES | LD50
126 | Cc1ccc(C(=O)CC(=O)C(F)(F)F)cc1 | 300 mg/kg
127 | Nc1n[nH]c2ccc(C(F)(F)F)cc12 | 90 mg/kg
128 | O=C1CN2CCOC2(c2ccccc2F)c2cc(Br)ccc2N1 (stereo not given) | 2860 mg/kg
129 | CCC(CC)COCCC#N | 2460 mg/kg
130 | CNC(=O)Oc1ccc(Cl)c2c1OC(C)(C)C2 | 248 mg/kg
131 | O=C1c2ccccc2C(=O)C1c1ccc(Cl)cc1 | 290 mg/kg
132 | CCOC(=O)C1CCCCC1 | 3960 mg/kg
133 | Cc1cc(=NC(=O)c2ccccc2O)n(-c2ccccc2)n1C | 1270 mg/kg
134 | O=Nc1ccc(N=O)cc1 | 1020 mg/kg
135 | Cc1c(-c2ccccc2)oc2c(C(=O)OCCN3CCCCC3)cccc2c1=O | 1440 mg/kg and 1040 mg/kg
136 | CCOC(=O)C=Cc1ccccc1 | 4000 mg/kg
137 | COc1cc(N)ccc1N | 60 mg/kg and 70 mg/kg
138 | OC/C=C/Cl | 102 mg/kg
139 | C=CC(=O)OCC(C)O (stereo not given) | 250 mg/kg
140 | N#C[C@H]1O[C@@H]1C#N | 250 mg/kg
141 | FCOC(C(F)(F)F)C(F)(F)F | 10800 mg/kg
142 | CN(C)CCCOC1(Cc2ccccc2)CCCCCC1 | 414 mg/kg
143 | COc1c(C)ccc(C)c1N(COC(C)C)C(=O)CCl | 1730 mg/kg
144 | CCCCc1c(OC(=O)C23CC4CC(CC(C4)C2)C3)n(-c2ccccc2)n(-c2ccccc2)c1=O | 1700 mg/kg
145 | CCOC(=O)c1c[n+](C)c2n(c1=O)C(C)CCC2 (stereo not given) | 1500 mg/kg
146 | COP(=O)(Oc1ccc([N+](=O)[O-])c(C)c1)SC (stereo not given) | 315 mg/kg
147 | CN(C)c1ccc(O)cc1 | 689 mg/kg
148 | CCCCON=O | 83 mg/kg
149 | Cc1cn([C@H]2C[C@H](N=[N+]=[N-])[C@@H](CO)O2)c(=O)[nH]c1=O | 3080 mg/kg
150 | CC(Cc1ccccc1)NCC1COc2ccccc2C1=O (stereo not given) | 500 mg/kg
